# According to PubChem BioAssay (NCI):
#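 Growth conditions: 96-well plates. Treatment: test compound, 48 hours, 5 concentrations. Analysis: linear interpolation between bracketing concentrations; unreached endpoints set to highest concentration. GI50 = concentration required for 50% inhibition of growth. The concentration for full growth arrest is given as TGI.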
# Experiments:
# Experiment in all cases: NCI anticancer screen, dose series, 48 h
# [1] = test system: SK-MEL-28 melanoma
# [2] = test system: PC-3 prostate
# [3] = test system: MDA-MB-435
# [4] = test system: U251 CNS
# [5] = test system: K-562 leukemia
# [6] = test system: MALME-3M melanoma
# [7] = test system: NCI/ADR-RES ovarian
# [8] = test system: NCI-H23 lung
# [9] = test system: HCT-15 colon
# [10] = test system: SF-295 CNS
# [11] = test system: TK-10 renal
# [12] = test system: OVCAR-5 ovarian
# [13] = test system: UO-31 renal
# [14] = test system: RPMI-8226 leukemia
# [15] = test system: HT29 colon
# [16] = test system: KM12 colon
# [17] = test system: OVCAR-3 ovarian
# [18] = test system: COLO 205 colon
# [19] = test system: A498 renal
# [20] = test system: HOP-62 NSCLC
# [21] = test system: SK-MEL-5 melanoma
# [22] = test system: M14 melanoma
# [23] = test system: SN12C renal
# [24] = test system: NCI-H226 lung
# [25] = test system: SNB-19 CNS
# [26] = test system: CAKI-1 renal
# [27] = test system: UACC-257 melanoma
# [28] = test system: SF-539 CNS
# [29] = test system: MDA-MB-231 breast
# [30] = test system: HCT-116 colon
# [31] = test system: SK-MEL-2 melanoma
# [32] = test system: MCF7 breast
# [33] = test system: RXF 393 renal
# [34] = test system: HS 578T breast
# [35] = test system: HCC-2998 colon
# [36] = test system: HL-60(TB) leukemia
# [37] = test system: DU-145 prostate
# [38] = test system: NCI-H522 lung
# [39] = test system: SNB-75 CNS
# [40] = test system: HOP-92 NSCLC
# [41] = test system: SR leukemia
# [42] = test system: LOX IMVI melanoma
# [43] = test system: T-47D breast
# [44] = test system: SK-OV-3 ovarian
# [45] = test system: UACC-62 melanoma
# [46] = test system: BT-549 breast
# [47] = test system: NCI-H460 lung
# [48] = test system: MOLT-4 leukemia
# [49] = test system: CCRF-CEM leukemia
# [50] = test system: ACHN renal
# [51] = test system: 786-0 renal
# [52] = test system: OVCAR-4 ovarian
# [53] = test system: IGROV1 ovarian
# [54] = test system: A549 NSCLC
# [55] = test system: SW-620 colon
# [56] = test system: SF-268 CNS
# [57] = test system: OVCAR-8 ovarian
structure (smiles),measurement,setting,value
Nc1c(C(=O)Nc2cccc(C(F)(F)F)c2)sc2nc3c(cc12)C(O)CCC3 (centres undefined),GI50,[1],6.42 µM
same,TGI,[1],> 100 µM
same,GI50,[2],4.02 µM
same,TGI,[2],28.4 µM
same,GI50,[3],0.322 µM
same,TGI,[3],1.65 µM
same,GI50,[4],6.05 µM
same,TGI,[4],37.6 µM
same,GI50,[5],0.703 µM
same,TGI,[5],> 100 µM
same,GI50,[6],6.72 µM
same,TGI,[6],> 68 µM
same,GI50,[7],6.14 µM
same,TGI,[7],> 100 µM
same,GI50,[8],15.2 µM
same,TGI,[8],> 100 µM
same,GI50,[9],1.93 µM
same,TGI,[9],> 100 µM
same,GI50,[10],3.07 µM
same,TGI,[10],38.4 µM
same,GI50,[11],11.8 µM
same,TGI,[11],50.2 µM
same,GI50,[12],> 50 µM
same,TGI,[12],> 100 µM
same,GI50,[13],32.2 µM
same,TGI,[13],> 100 µM
same,GI50,[14],4.26 µM
same,TGI,[14],> 100 µM
same,GI50,[15],3.35 µM
same,TGI,[15],> 100 µM
same,GI50,[16],3.28 µM
same,TGI,[16],> 100 µM
same,GI50,[17],4.27 µM
same,TGI,[17],> 49.3 µM
same,GI50,[18],3.79 µM
same,TGI,[18],> 100 µM
same,GI50,[19],0.872 µM
same,TGI,[19],27.7 µM
same,GI50,[20],6.82 µM
same,TGI,[20],39.4 µM
same,GI50,[21],3.59 µM
same,TGI,[21],> 81.6 µM
same,GI50,[22],3.18 µM
same,TGI,[22],99.5 µM
same,GI50,[23],11.1 µM
same,TGI,[23],> 100 µM
same,GI50,[24],10.8 µM
same,TGI,[24],> 95.5 µM
same,GI50,[25],14.4 µM
same,TGI,[25],> 100 µM
same,GI50,[26],9.52 µM
same,TGI,[26],> 100 µM
same,GI50,[27],> 26.2 µM
same,TGI,[27],> 100 µM
same,GI50,[28],4 µM
same,TGI,[28],> 41.9 µM
same,GI50,[29],12.2 µM
same,TGI,[29],> 100 µM
same,GI50,[30],3.02 µM
same,TGI,[30],> 100 µM
same,GI50,[31],6.69 µM
same,TGI,[31],56.4 µM
same,GI50,[32],1.39 µM
same,TGI,[32],> 100 µM
same,GI50,[33],5.65 µM
same,TGI,[33],50.8 µM
same,GI50,[34],6.23 µM
same,TGI,[34],96.9 µM
same,GI50,[35],> 61.2 µM
same,TGI,[35],> 100 µM
same,GI50,[36],3.22 µM
same,TGI,[36],> 100 µM
same,GI50,[37],5.44 µM
same,TGI,[37],> 57.9 µM
same,GI50,[38],12.7 µM
same,TGI,[38],> 100 µM
same,GI50,[39],3.47 µM
same,TGI,[39],18.1 µM
same,GI50,[40],3.31 µM
same,TGI,[40],25.6 µM
same,GI50,[41],0.61 µM
same,TGI,[41],> 88.1 µM
same,GI50,[42],5.68 µM
same,TGI,[42],> 100 µM
same,GI50,[43],8.69 µM
same,TGI,[43],66.8 µM
same,GI50,[44],15.3 µM
same,TGI,[44],> 100 µM
same,GI50,[45],3.2 µM
same,TGI,[45],> 100 µM
same,GI50,[46],7.27 µM
same,TGI,[46],> 100 µM
same,GI50,[47],4.55 µM
same,TGI,[47],> 100 µM
same,GI50,[48],6.7 µM
same,TGI,[48],> 100 µM
same,GI50,[49],3.4 µM
same,TGI,[49],> 100 µM
same,GI50,[50],10.1 µM
same,TGI,[50],> 68.4 µM
same,GI50,[51],13.7 µM
same,TGI,[51],44.8 µM
same,GI50,[52],3.46 µM
same,TGI,[52],> 46.6 µM
same,GI50,[53],14.1 µM
same,TGI,[53],> 100 µM
same,GI50,[54],6.85 µM
same,TGI,[54],> 79.4 µM
same,GI50,[55],2.73 µM
same,TGI,[55],> 100 µM
same,GI50,[56],6.07 µM
same,TGI,[56],> 67.1 µM
same,GI50,[57],9.66 µM
same,TGI,[57],> 100 µM
